Data: patent US11970448B2, “Monomers capable of dimerizing in an aqueous solution, and methods of using same” (CORNELL UNIVERSITY, priority 2011, dated 2024)
Counter-ions that a name gives are not always drawn. Like-named read-outs stand apart in the source and are kept apart here.

Biological target: T1, recominbant human tryptase, beta, from lung (Homo sapiens, UniProt P20231)
T1 construct: purchased Promega or Enzo Life Sciences G5631 or BML-SE418
Assay: Inhibition of tryptase activity by monomers and multimers (Boc-Gln-Ala-Arg-AMC fluorescence)
Format: biochemical
Conditions: monomers against tryptase
Method: Stock solutions of recominbant human tryptase, beta, from lung (Promega: catalog number G5631, or Enzo Life Sciences: catalog number BML-SE418) were made at 30 μM, in solution with 5 μM heparin sulfate and 1 M NaCl. Monomer tryptase inhibitor stock solutions were made at 50 mM in DMSO. Test substance plates were made at 1.2× the final concentration in assay buffer (50 mM HEPES, 150 mM NaCl, 100 μM EDTA, pH 7.4, 0.02% Tween-20). A final concentration of 1 nM tryptase was used. When required, test substances were diluted in water immediately before use in 10-fold serial dilutions. After the indicated incubation time, the test subtance-tryptase solution at 1.2× concentration, was diluted into assay buffer containing a final concentration of 200 μM N-tert-butoxycarbonyl-Gln-Ala-Arg-AMC HBr [AMC=7-amino-4-methylcoumarin] (Boc-Gln-Ala-Arg-AMC; Enzo Life Sciences: catalog number BML-P237) to a final volume of 50 μl in black opaque round bottom 96 well plates (Corning, catalog number 3792). The release of fluorescent AMC was immediately measured every 30 seconds over 15-30 minutes at an excitation wavelength of 367 nm, monitoring emission at 468 nm on a Spectramax M5 (Molecular Devices) microplate reader. The Softmax Pro (Molecular Devices) and Graphpad prism software were used to determine Vmax, and concentration-response curve IC50s, respectively.

[1] = entry marked (1:10), read-out: IC50 range group of additional monomers marked (1:10)
[2] = Table 5, read-out: Monomer IC50 range
[3] = read-out: IC50 range group of additional monomers (boronic acid, benzooxaborole, ligands)

T1 sequence (P20231 31-275): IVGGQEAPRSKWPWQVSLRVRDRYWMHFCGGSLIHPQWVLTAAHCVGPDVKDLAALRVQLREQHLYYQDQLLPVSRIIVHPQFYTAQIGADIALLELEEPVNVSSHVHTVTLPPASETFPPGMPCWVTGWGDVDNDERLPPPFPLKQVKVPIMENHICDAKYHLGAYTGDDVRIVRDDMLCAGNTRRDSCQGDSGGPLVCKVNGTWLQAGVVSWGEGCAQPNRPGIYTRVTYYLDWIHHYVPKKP

| SMILES | IC50 [1] [nM] | IC50 [2] [nM] | IC50 [3] [nM] |
| --- | --- | --- | --- |
| C[C@@]1(O)CN(c2cccc(C(=O)N3CCC(c4cccc(CN)c4)CC3)c2)C(=O)[C@@H]1O [CMI9317, 1-{^3-[^4-(3-aminomethyl-phenyl)-piperidine-1-carbonyl]-phenyl}-3,4-dihydroxy-4-methyl-pyrrolidin-2-one hydrochloride] | 0.1 to 1000 |  |  |
| NCc1cccc(C2CCN(C(=O)c3cccc(/C=C/B(O)O)c3)CC2)c1 [T14, (E)-3-(4-(3-(aminomethyl)phenyl)piperidine-1-carbonyl)styrylboronic acid] |  | 0.1 to 1000 |  |
| NCc1cccc(C2CCN(C(=O)c3ccc(CO)c(O)c3)CC2)c1 [T74, (4-(3-(aminomethyl)phenyl)piperidin-1-yl)(3-hydroxy-4-(hydroxymethyl)phenyl)methanone] | 0.1 to 1000 | 0.1 to 1000 |  |
| NCc1ccc2c(c1)C1(CCN(C(=O)c3cccc(-c4ccc(F)c(B(O)O)c4)c3)CC1)CO2 [T131SPIRO] |  |  | 0.1 to 1000 |
| NCc1cccc(C2CCN(C(=O)c3cc4c(Br)cccc4s3)CC2)c1 [T56A, (4-(3-(aminomethyl)phenyl)piperidin-1-yl)(4-bromobenzo[b]thiophen-2-yl)methanone] |  | 0.1 to 1000 |  |
| NCc1cccc(C2CCN(C(=O)c3cccc(NC(=O)C4CC5CCC4C(O)C5O)c3)CC2)c1 (racemic) [T141EXOSYN, (±) exo-N-(3-(4-(3-(aminomethyl)phenyl)piperidine-1-carbonyl)phenyl)-5,6-syn-dihydroxybicyclo[2.2.2]octane-2-carboxamide.] |  |  | 1000 to 10000 |
| COc1cc(/C=C/C(=O)N2CCC(c3cccc(CN)c3)CC2)ccc1O [T24MON, (E)-1-(4-(3-(aminomethyl)phenyl)piperidin-1-yl)-3-(4-hydroxy-3-methoxyphenyl)prop-2-en-1-one] |  | 1000 to 10000 |  |
| NCc1ccc2c(c1)C1(CCN(C(=O)c3cccc(-c4cccc5c4COB5O)c3)CC1)CO2 [T112SPIRO] |  |  | 1000 to 10000 |
| NCc1cccc(C2CCN(C(=O)c3cccc(N4C[C@@H](O)[C@@H](O)C4)c3)CC2)c1 [T25B, (4-(3-(aminomethyl)phenyl)piperidin-1-yl)(3-((3S,4R)-3,4-dihydroxypyrrolidin-1-yl)phenyl)methanone] | 0.1 to 1000 | 0.1 to 1000 |  |
| NCc1ccc(CNC(=O)N2CCN(C(=O)CNC(=O)C(=O)CO)CC2)cc1 [CF20, N-(4-(aminomethyl)benzyl)-4-(2-(3-hydroxy-2-oxopropanamido)acetyl)piperazine-1-carboxamide] |  | 0.1 to 1000 |  |
| CN(Cc1ccccc1B(O)O)c1ccc(C(=O)N2CCC(c3cccc(CN)c3)CC2)cc1 [T147] |  |  | 1000 to 10000 |
| CN(C)c1ccc(B(O)O)cc1-c1cccc(C(=O)N2CCC3(CC2)COc2ccc(CN)cc23)c1 [T155SPIRO] |  |  | 1000 to 10000 |
| NCc1cccc(C2CCN(C(=O)c3cccc(OCCC(=O)N4C[C@@H](O)[C@@H](O)C4)c3)CC2)c1 [T53, 3-(3-(4-(3-(aminomethyl)phenyl)piperidine-1-carbonyl)phenoxy)-1-((3S,4R)-3,4-dihydroxypyrrolidin-1-yl)propan-1-one] |  | 0.1 to 1000 | 0.1 to 1000 |
| NCc1ccc2c(c1)C1(CCN(C(=O)c3ccc(C(=O)NOc4ccccc4)c(O)c3)CC1)CO2 [T75APSPIRO] |  |  | 0.1 to 1000 |
| CONC(=O)c1cc(C(=O)N2CCC3(CC2)COc2ccc(CN)cc23)ccc1O [T92SPIRO] |  |  | 0.1 to 1000 |
| NCc1ccc2c(c1)C1(CCN(C(=O)c3ccc(CO)c(O)c3)CC1)CO2 [T74SPIRO] |  |  | 0.1 to 1000 |
| NCc1cccc(C2CCN(C(=O)c3ccc4c(ccn4CC(O)(C(=O)O)c4ccccc4)c3)CC2)c1 (centres unmarked) [T83, 3-(5-(4-(3-(aminomethyl)phenyl)piperidine-1-carbonyl)-1H-indol-1-yl)-2-hydroxy-2-phenylpropanoic acid] | 0.1 to 1000 | 0.1 to 1000 |  |
| NCc1ccc2c(c1)C1(CCN(C(=O)c3ccc(OCC(O)CO)cc3)CC1)CO2 (centres unmarked) [CF15, (5-(aminomethyl)-2H-spiro[benzofuran-3,4′-piperidine]-1′-yl)(4-(2,3-dihydroxypropoxy)phenyl)methanone hydrochloride] |  | 1000 to 10000 |  |
| NCc1ccc(F)c(C2CCN(C(=O)c3cccc(-c4cccc(B(O)O)c4)c3)CC2)c1 [T35F, 3′-(4-(5-(aminomethyl)-2-fluorophenyl)piperidine-1-carbonyl)biphenyl-3-ylboronic acid] |  | 0.1 to 1000 | 0.1 to 1000 |
| Cc1c(CC(=O)N2CCC(c3cccc(CN)c3)CC2)c(=O)oc2cc(N(C)Cc3ccccc3B(O)O)ccc12 [T144] |  |  | 1000 to 10000 |
| NCc1cccc(C2CCN(C(=O)CCc3ccc(O)c(O)c3)CC2)c1 [T24Dihydro, 1-(4-(3-(aminomethyl)phenyl)piperidin-1-yl)-3-(3,4-dihydroxyphenyl)propan-1-one (TFA salt)] |  |  | 1000 to 10000 |
| CONC(=O)c1ccc(C(=O)N2CCC(c3cccc(CN)c3)CC2)cc1O [T75A, 4-(4-(3-(aminomethyl)phenyl)piperidine-1-carbonyl)-2-hydroxy-N-methoxybenzamide] |  | 0.1 to 1000 | 0.1 to 1000 |

| SMILES | IC50 [1] [nM] | IC50 [2] [nM] | IC50 [3] [nM] |
| --- | --- | --- | --- |
| NCc1cccc(C2CCN(C(=O)c3cc4ccc(O)c(O)c4oc3=O)CC2)c1 [T102] | 0.1 to 1000 | 0.1 to 1000 |  |
| NCc1ccc2c(c1)C1(CCN(C(=O)c3ccc(Cl)c(-c4cccc(B(O)O)c4)c3)CC1)CO2 [T109SPIRO] |  |  | 0.1 to 1000 |
| COc1ccc(C(=O)N2CCC(c3cccc(CN)c3)CC2)c(O)c1O [T127] |  |  | 1000 to 10000 |
| NCc1cccc(C2CCN(C(=O)C3CC4CCC3C(O)C4O)CC2)c1 (racemic) [T142ENDOSYN, (±) endo (4-(3 (aminomethyl)phenyl)piperidin-1-yl)(-5,6-syn-dihydroxybicyclo[2.2.2]octan-2-yl)methanone] |  |  | 10000 to 65000 |
| NCc1cccc(C2CCN(C(=O)c3cc(O)c(O)cc3O)CC2)c1 [T77, (4-(3-(aminomethyl)phenyl)piperidin-1-yl)(2,4,5-trihydroxyphenyl)methanone] |  | 10000 to 65000 | 10000 to 65000 |
| NCc1ccc(C(=O)NCc2ccc(OCC(=O)N3C[C@@H](O)[C@H](O)C3)cc2)cc1 [CF6, 4-(aminomethyl)-N-(4-(2-((3R,4R)-3,4-dihydroxypyrrolidin-1-yl)-2-oxoethoxy)benzyl)benzamide hydrochloride] |  | 10000 to 65000 |  |
| NCc1ccc(C(=O)NCc2ccc(OCC(=O)N3CC(=O)[C@H](O)C3)cc2)cc1 [CF7, (R)-4-(aminomethyl)-N-(4-(2-(3-hydroxy-4-oxopyrrolidin-1-yl)-2-oxoethoxy)benzyl)benzamide hydrochloride] |  | 1000 to 10000 |  |
| CONC(=O)c1cc(C(=O)N2CCC3(CC2)COc2ccc(CN)cc23)cc(C)c1O [T114Spiro] |  |  | 0.1 to 1000 |
| CONC(=O)c1cc(C(=O)N2CCC(c3cccc(CN)c3)CC2)ccc1O [T92, 5-(4-(3-(aminomethyl)phenyl)piperidine-1-carbonyl)-2-hydroxy-N-methoxybenzamide] |  | 1000 to 10000 | 1000 to 10000 |
| NCc1ccc2c(c1)C1(CCN(C(=O)c3cc(O)c(O)c(Cl)c3)CC1)CO2 [T78SPIRO, (5-(aminomethyl)-2H-spiro[benzofuran-3,4′-piperidine]-1′-yl)(3-chloro-4,5-dihydroxyphenyl)methanone] |  | 0.1 to 1000 | 0.1 to 1000 |
| NCc1cccc(C2CCN(C(=O)c3cccc4sc(Br)cc34)CC2)c1 [T37A, (4-(3-(aminomethyl)phenyl)piperidin-1-yl)(2-bromobenzo[b]thiophen-4-yl)methanone] |  | 1000 to 10000 |  |
| NCc1cccc(C2CCN(C(=O)c3cc4cc(O)c(O)cc4oc3=O)CC2)c1 [T100] |  | 10000 to 65000 | 10000 to 65000 |
| NCc1ccc(C(=O)NCc2ccc(OCCC(=O)N3CC(=O)[C@@H](O)C3)cc2)cc1 [CF10, (S)-4-(aminomethyl)-N-(4-(3-(3-hydroxy-4-oxopyrrolidin-1-yl)-3-oxopropoxy)benzyl)benzamide hydrochloride] |  | 10000 to 65000 |  |
| NCc1cccc(C2CCN(C(=O)c3cccc4sc(B(O)O)cc34)CC2)c1 [T37, 4-(4-(3-(aminomethyl)phenyl)piperidine-1-carbonyl)benzo[b]thiophen-2-ylboronic acid] |  | 1000 to 10000 | 1000 to 10000 |
| NCc1cccc(C2CCN(C(=O)Cc3ccc(B(O)O)c(F)c3)CC2)c1 [T54BA] |  |  | 1000 to 10000 |
| NCc1cccc(C2CCN(C(=O)c3cccc(O)c3)CC2)c1 [T53B, (4-(3-(aminomethyl)phenyl)piperidin-1-yl)(3-hydroxyphenyl)methanone] |  | 1000 to 10000 |  |
| CN(Cc1ccccc1B(O)O)c1cccc(C(=O)N2CCC(c3cccc(CN)c3)CC2)c1 [T146] |  |  | 10000 to 65000 |
| CC(C)(C)ONC(=O)c1cc(C(=O)N2CCC3(CC2)COc2ccc(CN)cc23)ccc1O [T920TBSPIRO] |  |  | 1000 to 10000 |
| CN(Cc1ccccc1B(O)O)c1cccc2c(C(=O)N3CCC(c4cccc(CN)c4)CC3)cccc12 [T143] |  |  | 1000 to 10000 |
| NCc1cccc(C2CCN(C(=O)/C=C/c3ccc(O)c(O)c3)CC2)c1 [T24, (E)-1-(4-(3-(aminomethyl)phenyl)piperidin-1-yl)-3-(3,4-dihydroxyphenyl)prop-2-en-1-one hydrochloride] |  | 1000 to 10000 | 1000 to 10000 |
| CC(C)(O)c1ccc(C(=O)N2CCC(c3cccc(CN)c3)CC2)cc1O [T126] |  |  | 1000 to 10000 |
